What was measured:
hERK5 = molecular target: T1, hERK5 (Homo sapiens, UniProt Q13164); test: KINOMEscan; type: binding
T1 construct: purchased DiscoverX

hGSK3B = molecular target: T2, hGSK3B (Homo sapiens, UniProt P49841); test: KINOMEscan; type: binding
T2 construct: purchased DiscoverX

hJNK2 = molecular target: T3, hJNK2 (Homo sapiens, UniProt P45984); test: KINOMEscan; type: binding
T3 construct: purchased DiscoverX (KINOMEscan panel)

[1] = molecular target: T4, hRPS6KA4(Kin.Dom.1-N-term) (Homo sapiens, UniProt O75676); test: KINOMEscan; type: binding
T4 construct: hRPS6KA4(Kin.Dom.1-N-term); purchased DiscoverX (KINOMEscan platform)

hEPHA5 = molecular target: T5, hEPHA5 (Homo sapiens, UniProt P54756); test: KINOMEscan; type: binding
T5 construct: purchased DiscoverX

hQSK = molecular target: T6, hQSK (Homo sapiens, UniProt Q9Y2K2); test: KINOMEscan; type: binding
T6 construct: purchased DiscoverX (KINOMEscan platform)

hTIE2 = molecular target: T7, hTIE2 (Homo sapiens, UniProt Q02763); test: KINOMEscan; type: binding
T7 construct: purchased DiscoverX

hPPARα = molecular target: T8, hPPARα (Homo sapiens, UniProt Q07869); test: Nuclear hormone receptor assay (Eurofins-CEREP); conditions: read-out: Relative IC50
T8 construct: Eurofins-CEREP

hAURKA = molecular target: T9, hAURKA (Homo sapiens, UniProt O14965); test: KINOMEscan; type: binding
T9 construct: purchased DiscoverX

hDMPK = molecular target: T10, hDMPK (Homo sapiens, UniProt Q09013); test: KINOMEscan; type: binding
T10 construct: purchased DiscoverX (KINOMEscan platform)

hCIT = molecular target: T11, hCIT (Homo sapiens, UniProt O14578); test: KINOMEscan; type: binding
T11 construct: purchased DiscoverX

hVDR = molecular target: T12, hVDR (Homo sapiens, UniProt P11473); test: Nuclear hormone receptor assay (Eurofins-CEREP); conditions: read-out: Relative IC50
T12 construct: Eurofins-CEREP

hCDKL5 = molecular target: T13, hCDKL5 (Homo sapiens, UniProt O76039); test: KINOMEscan; type: binding
T13 construct: purchased DiscoverX

h5HT2B = h5HT2B (Homo sapiens, UniProt P41595); test: Calcium Mobilization Potentiation (Eurofins-CEREP); conditions: @ 10 μM
hIRAK4 = molecular target: T14, hIRAK4 (Homo sapiens, UniProt Q9NWZ3); test: KINOMEscan; type: binding
T14 construct: purchased DiscoverX (KINOMEscan panel)

hAMPK-alpha1 = molecular target: T15, hAMPK-alpha1 (Homo sapiens, UniProt Q13131); test: KINOMEscan; type: binding
T15 construct: purchased DiscoverX
T15 sequence (Q13131 whole entry): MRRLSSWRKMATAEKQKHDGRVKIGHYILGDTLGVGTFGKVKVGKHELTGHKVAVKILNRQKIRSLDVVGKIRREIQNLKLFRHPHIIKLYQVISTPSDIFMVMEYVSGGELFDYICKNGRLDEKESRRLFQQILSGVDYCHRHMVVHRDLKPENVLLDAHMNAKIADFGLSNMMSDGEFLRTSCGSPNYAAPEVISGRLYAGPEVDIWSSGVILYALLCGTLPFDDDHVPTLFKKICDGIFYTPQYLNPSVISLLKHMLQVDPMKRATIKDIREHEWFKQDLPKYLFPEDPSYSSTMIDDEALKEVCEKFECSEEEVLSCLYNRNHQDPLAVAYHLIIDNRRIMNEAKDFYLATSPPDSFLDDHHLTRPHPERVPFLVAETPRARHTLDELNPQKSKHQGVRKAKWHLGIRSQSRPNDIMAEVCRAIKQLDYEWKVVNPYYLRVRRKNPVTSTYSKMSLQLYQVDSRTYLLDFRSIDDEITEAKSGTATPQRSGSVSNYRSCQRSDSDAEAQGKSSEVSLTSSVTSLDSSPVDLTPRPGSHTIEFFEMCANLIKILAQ

hTTK = molecular target: T16, hTTK (Homo sapiens, UniProt P33981); test: KINOMEscan; type: binding
T16 construct: purchased DiscoverX

hLATS1 = molecular target: T17, hLATS1 (Homo sapiens, UniProt O95835); test: KINOMEscan; type: binding
T17 construct: purchased DiscoverX (KINOMEscan platform)

hFGFR4 = molecular target: T18, hFGFR4 (Homo sapiens, UniProt P22455); test: KINOMEscan; type: binding
T18 construct: purchased DiscoverX
T18 sequence (P22455 22-802): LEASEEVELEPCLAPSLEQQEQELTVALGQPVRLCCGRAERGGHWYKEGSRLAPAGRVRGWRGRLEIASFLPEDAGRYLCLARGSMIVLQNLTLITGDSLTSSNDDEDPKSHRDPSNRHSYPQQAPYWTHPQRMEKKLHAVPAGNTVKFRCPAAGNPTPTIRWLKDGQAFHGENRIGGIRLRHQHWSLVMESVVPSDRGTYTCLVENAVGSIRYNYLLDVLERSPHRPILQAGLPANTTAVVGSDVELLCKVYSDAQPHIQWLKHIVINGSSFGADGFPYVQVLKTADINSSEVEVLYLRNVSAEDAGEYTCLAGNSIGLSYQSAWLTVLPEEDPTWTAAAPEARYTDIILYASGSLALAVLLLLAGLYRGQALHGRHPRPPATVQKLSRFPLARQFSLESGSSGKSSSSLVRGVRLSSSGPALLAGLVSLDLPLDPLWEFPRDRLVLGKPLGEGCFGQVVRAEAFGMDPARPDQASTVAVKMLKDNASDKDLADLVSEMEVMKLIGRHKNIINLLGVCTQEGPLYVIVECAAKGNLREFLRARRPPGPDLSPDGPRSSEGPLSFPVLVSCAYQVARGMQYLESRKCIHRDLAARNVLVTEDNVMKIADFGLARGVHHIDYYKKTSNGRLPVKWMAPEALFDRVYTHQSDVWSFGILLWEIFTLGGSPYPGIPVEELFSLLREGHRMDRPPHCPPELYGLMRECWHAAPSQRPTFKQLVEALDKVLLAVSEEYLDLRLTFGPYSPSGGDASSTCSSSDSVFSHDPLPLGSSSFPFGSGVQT

hTNK2 = molecular target: T19, hTNK2 (Homo sapiens, UniProt Q07912); test: KINOMEscan; type: binding
T19 construct: purchased DiscoverX
T19 sequence (Q07912 whole entry): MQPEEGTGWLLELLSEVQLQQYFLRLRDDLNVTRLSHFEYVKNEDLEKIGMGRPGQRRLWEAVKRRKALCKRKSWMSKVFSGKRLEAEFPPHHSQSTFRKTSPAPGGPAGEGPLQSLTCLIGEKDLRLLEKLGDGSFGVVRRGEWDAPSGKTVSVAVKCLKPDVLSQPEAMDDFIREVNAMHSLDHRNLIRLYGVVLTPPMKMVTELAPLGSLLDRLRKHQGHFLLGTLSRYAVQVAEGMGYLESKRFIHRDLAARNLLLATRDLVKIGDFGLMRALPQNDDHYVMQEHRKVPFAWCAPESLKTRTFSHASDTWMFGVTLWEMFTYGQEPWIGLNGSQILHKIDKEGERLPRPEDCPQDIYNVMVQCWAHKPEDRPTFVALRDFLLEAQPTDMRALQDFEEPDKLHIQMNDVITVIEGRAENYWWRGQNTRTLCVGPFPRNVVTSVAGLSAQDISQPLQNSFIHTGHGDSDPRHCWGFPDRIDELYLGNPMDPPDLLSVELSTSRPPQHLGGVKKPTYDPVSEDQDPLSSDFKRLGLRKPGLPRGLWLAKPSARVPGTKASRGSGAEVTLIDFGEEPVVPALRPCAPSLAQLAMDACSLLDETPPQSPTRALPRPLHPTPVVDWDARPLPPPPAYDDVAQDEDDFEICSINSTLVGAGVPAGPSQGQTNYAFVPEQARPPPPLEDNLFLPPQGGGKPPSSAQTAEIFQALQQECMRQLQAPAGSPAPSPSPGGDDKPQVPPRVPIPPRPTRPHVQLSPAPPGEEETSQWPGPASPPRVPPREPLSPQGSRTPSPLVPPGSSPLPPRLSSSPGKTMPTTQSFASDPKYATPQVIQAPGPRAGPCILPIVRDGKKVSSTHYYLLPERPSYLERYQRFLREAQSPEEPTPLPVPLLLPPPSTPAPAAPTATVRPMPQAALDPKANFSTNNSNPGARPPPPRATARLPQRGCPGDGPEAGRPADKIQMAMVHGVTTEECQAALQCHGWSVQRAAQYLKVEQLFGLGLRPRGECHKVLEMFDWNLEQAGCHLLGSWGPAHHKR

hRARα = molecular target: T20, hRARα (Homo sapiens, UniProt P10276); test: Nuclear hormone receptor assay (Eurofins-CEREP); conditions: read-out: Relative IC50
T20 construct: Eurofins-CEREP

hERK2 = molecular target: T21, hERK2 (Homo sapiens, UniProt P28482); test: KINOMEscan; type: binding
T21 construct: purchased DiscoverX

hRSK3(Kin.Dom.1-N-term) = molecular target: T22, hRSK3(Kin.Dom.1-N-term) (Homo sapiens, UniProt Q15349); test: KINOMEscan; type: binding
T22 construct: hRSK3(Kin.Dom.1-N-term); purchased DiscoverX (KINOMEscan platform)
T22 sequence (Q15349 59-318 limits assumed): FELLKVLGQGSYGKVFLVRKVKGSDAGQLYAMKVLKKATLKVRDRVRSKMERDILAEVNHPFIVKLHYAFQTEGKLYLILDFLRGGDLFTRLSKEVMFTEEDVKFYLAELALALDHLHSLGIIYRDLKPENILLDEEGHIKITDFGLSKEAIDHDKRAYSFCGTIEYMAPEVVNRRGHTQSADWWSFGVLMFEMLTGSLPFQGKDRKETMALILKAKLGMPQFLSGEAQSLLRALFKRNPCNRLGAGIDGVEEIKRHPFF

hDCAMKL1 = molecular target: T23, hDCAMKL1 (Homo sapiens, UniProt O15075); test: KINOMEscan; type: binding
T23 construct: purchased DiscoverX (KINOMEscan platform)
T23 sequence (O15075 whole entry): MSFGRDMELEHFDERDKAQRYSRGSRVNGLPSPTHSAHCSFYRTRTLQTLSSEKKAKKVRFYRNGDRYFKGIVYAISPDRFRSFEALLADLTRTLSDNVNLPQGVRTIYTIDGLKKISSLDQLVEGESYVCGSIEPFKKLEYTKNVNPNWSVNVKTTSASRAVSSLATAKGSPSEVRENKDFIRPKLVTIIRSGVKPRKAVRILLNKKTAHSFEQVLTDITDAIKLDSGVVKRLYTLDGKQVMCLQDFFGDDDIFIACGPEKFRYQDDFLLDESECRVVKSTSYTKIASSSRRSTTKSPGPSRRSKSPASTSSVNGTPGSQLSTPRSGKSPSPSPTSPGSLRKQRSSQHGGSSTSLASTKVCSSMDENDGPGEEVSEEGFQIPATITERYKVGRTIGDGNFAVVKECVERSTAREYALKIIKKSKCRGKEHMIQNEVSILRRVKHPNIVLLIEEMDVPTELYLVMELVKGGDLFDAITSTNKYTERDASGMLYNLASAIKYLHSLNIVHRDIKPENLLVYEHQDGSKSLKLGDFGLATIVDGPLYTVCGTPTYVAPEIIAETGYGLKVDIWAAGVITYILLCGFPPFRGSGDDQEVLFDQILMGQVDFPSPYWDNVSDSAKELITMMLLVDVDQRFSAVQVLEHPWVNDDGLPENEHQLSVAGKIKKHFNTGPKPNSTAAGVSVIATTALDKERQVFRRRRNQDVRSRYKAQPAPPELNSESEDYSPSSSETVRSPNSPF

hGRK7 = molecular target: T24, hGRK7 (Homo sapiens, UniProt Q8WTQ7); test: KINOMEscan; type: binding
T24 construct: purchased DiscoverX

hCAMKK2 = molecular target: T25, hCAMKK2 (Homo sapiens, UniProt Q96RR4); test: KINOMEscan; type: binding
T25 construct: purchased DiscoverX

hKIT-autoinhibited = molecular target: T26, hKIT-autoinhibited (Homo sapiens, UniProt P10721); test: KINOMEscan; type: binding
T26 construct: purchased DiscoverX (KINOMEscan platform)
T26 sequence (P10721 544-976 limits assumed): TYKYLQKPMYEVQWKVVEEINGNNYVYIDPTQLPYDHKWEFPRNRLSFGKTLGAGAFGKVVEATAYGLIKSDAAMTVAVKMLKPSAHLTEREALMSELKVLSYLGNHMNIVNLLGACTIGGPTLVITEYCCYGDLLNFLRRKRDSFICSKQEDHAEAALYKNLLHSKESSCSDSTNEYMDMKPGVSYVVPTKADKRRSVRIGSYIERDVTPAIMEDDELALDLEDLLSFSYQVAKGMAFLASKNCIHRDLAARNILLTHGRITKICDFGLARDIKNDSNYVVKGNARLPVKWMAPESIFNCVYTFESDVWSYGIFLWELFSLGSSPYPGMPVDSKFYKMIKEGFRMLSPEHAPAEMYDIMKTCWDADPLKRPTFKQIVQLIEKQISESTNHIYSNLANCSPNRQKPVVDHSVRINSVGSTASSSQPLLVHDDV

hTAOK3 = molecular target: T27, hTAOK3 (Homo sapiens, UniProt Q9H2K8); test: KINOMEscan; type: binding
T27 construct: purchased DiscoverX

hKIT(V559D,V654A) = molecular target: T28, hKIT(V559D,V654A) (Homo sapiens, UniProt P10721, V559D/V654A); test: KINOMEscan; type: binding
T28 construct: purchased DiscoverX (KINOMEscan platform)

hFLT3(D835H) = molecular target: T29, hFLT3(D835H) (Homo sapiens, UniProt P36888, D835H); test: KINOMEscan; type: binding
T29 construct: purchased DiscoverX

hSLK = molecular target: T30, hSLK (Homo sapiens, UniProt Q9H2G2); test: KINOMEscan; type: binding
T30 construct: purchased DiscoverX (KINOMEscan platform)
T30 sequence (Q9H2G2 whole entry): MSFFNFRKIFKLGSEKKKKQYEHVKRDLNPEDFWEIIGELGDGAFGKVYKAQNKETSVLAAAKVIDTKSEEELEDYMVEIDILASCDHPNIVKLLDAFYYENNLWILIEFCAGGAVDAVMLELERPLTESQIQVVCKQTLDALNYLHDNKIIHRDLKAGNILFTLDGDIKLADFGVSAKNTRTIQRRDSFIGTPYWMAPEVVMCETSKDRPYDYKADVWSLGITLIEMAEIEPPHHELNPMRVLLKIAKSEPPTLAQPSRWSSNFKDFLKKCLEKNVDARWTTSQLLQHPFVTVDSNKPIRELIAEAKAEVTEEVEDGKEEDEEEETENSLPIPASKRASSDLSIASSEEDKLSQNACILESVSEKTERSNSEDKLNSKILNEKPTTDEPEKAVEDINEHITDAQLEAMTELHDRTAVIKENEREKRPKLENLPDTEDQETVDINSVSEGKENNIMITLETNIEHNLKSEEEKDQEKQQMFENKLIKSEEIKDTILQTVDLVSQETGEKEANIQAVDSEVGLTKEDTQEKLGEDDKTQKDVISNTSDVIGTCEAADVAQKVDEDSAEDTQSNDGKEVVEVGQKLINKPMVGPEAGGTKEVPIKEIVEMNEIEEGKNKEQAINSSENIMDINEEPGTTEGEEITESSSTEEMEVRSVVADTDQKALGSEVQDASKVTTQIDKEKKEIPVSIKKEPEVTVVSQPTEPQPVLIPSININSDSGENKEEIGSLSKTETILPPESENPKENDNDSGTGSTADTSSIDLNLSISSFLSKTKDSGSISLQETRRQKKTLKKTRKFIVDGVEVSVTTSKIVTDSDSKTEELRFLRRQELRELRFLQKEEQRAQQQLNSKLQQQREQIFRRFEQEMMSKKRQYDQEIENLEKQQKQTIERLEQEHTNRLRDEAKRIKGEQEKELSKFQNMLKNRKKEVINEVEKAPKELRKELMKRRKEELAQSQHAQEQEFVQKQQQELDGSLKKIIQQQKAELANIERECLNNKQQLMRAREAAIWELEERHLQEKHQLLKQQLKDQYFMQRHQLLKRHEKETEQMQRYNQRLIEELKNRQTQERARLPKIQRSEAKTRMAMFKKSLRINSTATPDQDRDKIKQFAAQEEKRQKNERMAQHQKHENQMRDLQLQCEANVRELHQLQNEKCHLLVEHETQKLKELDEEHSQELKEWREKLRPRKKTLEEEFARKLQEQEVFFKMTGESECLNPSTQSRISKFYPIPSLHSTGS

hEGFR(S752-I759del) = molecular target: T31, hEGFR(S752-I759del) (Homo sapiens, UniProt P00533, DEL752-759); test: KINOMEscan; type: binding
T31 construct: purchased DiscoverX

Cc1cn(CCN2CCN(c3ccccc3-c3cc(C#N)cc(C(=O)NCCCN4CCCC4)c3)CC2)c2ccccc12 [LLY-507, 3-cyano-5-{2-[4-[2-(3-methylindol-1-yl)ethyl]piperazin-1-yl]-phenyl}-N-[(3-pyrrolidin-1-yl)propyl]benzamide]
IC50 (hERK5): > 20 µM | IC50 (hGSK3B): > 20 µM | IC50 (hJNK2): > 20 µM | IC50 [1]: > 20 µM | IC50 (hEPHA5): > 20 µM | IC50 (hQSK): > 20 µM | IC50 (hTIE2): > 20 µM | IC50 (hPPARα): > 10 µM | IC50 (hAURKA): > 20 µM | IC50 (hDMPK): > 20 µM | IC50 (hCIT): > 20 µM | IC50 (hVDR): > 10 µM | IC50 (hCDKL5): > 20 µM | % Effect, Potentiation (h5HT2B): -7.3% | IC50 (hIRAK4): > 20 µM | IC50 (hAMPK-alpha1): > 20 µM | IC50 (hTTK): > 20 µM | IC50 (hLATS1): > 20 µM | IC50 (hFGFR4): > 20 µM | IC50 (hTNK2): > 20 µM | IC50 (hRARα): > 10 µM | IC50 (hERK2): > 20 µM | IC50 (hRSK3(Kin.Dom.1-N-term)): > 20 µM | IC50 (hDCAMKL1): > 20 µM | IC50 (hGRK7): > 20 µM | IC50 (hCAMKK2): > 20 µM | IC50 (hKIT-autoinhibited): > 20 µM | IC50 (hTAOK3): > 20 µM | IC50 (hKIT(V559D,V654A)): > 20 µM | IC50 (hFLT3(D835H)): > 20 µM | IC50 (hSLK): > 20 µM | IC50 (hEGFR(S752-I759del)): > 20 µM

From PMC4447944 (The Journal of Biological Chemistry, 2015)
